# Data published in patent US20250122208A1, “CHEMOKINE RECEPTOR MODULATORS AND USES THEREOF” (RAPT THERAPEUTICS, INC., priority 2023, published 2025).
# Target: T1, CCR4 receptor (Homo sapiens, UniProt P51679)
# T1 construct: beta-galactosidase enzyme-fragment tag; From own knowledge, PathHunter uses a ProLink/enzyme-donor fragment, usually at the receptor's C-terminus; expressed in transfected cells; host or cells: CHO-K1
# T1 sequence (P51679 1-360): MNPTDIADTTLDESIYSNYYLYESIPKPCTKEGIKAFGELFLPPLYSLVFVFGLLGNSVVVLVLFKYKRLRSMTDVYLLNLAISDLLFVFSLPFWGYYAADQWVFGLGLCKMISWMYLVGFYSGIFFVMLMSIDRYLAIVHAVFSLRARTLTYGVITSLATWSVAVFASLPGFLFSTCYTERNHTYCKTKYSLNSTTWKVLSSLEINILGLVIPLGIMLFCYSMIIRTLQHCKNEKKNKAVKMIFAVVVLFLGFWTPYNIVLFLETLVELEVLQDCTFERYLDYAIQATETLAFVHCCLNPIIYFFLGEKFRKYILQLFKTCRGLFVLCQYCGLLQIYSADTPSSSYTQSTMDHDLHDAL
# Assay: CCR4 antagonist activity in Beta-Arrestin Cellular Assay (PathHunter, CCL22 challenge)
# Format: cell-based
# Conditions: CHO-K1 cells expressing the CCR4 receptor; CCL22 at EC80 (15 nM), 90 minutes; 30 min pre-incubation; read-out: Potency (CCR4 antagonist IC50 in the β-arrestin assay)
# Method: Example 39. Determination of CCR4 antagonist activity in Beta-Arrestin Cellular Assay
# CCR4 Antagonistic Activity was assessed in Beta-Arrestin Cellular Assay. Compounds were assessed in CHO-K1 cells expressing the CCR4 receptor modified to enable β-glactosidase detection of β-arrestin agonist activity stimulated by CCL22 in a chemiluminescence assay. Cells were seeded in a total volume of 20 μL into white walled, 384-well microplates and incubated at 37° C. prior to testing. Cells were pre-incubated with test compound for 30 min at 37° C. followed by agonist challenge with CCL22 at the EC80 concentration (15 nM) for 90 minutes. Assay signal was generated through a single addition of 12.5 or 15 μL ([…]) of PathHunter Detection reagent cocktail, followed by a one-hour incubation at room temperature. Microplates were read following signal generation with a PerkinElmer Envision™ instrument for chemiluminescent signal detection. Antagonist activity was analyzed using CBIS data analysis suite (ChemInnovation, CA). Antagonist activity was characterized as percentage inhibition calculated using the following formula:
# An IC50 of >500 nM is designated as Potency C, an IC50 of between 500 nM and 100 nM is designated as Potency B and an IC50 of <100 nM is designated as Potency A.
row,IC50,Compound
1,< 0.1 µM,"C[C@@H](Nc1cc(N2CCC([C@H]3CCCN(CC#N)C3)CC2)nc2ncnn12)c1ccc(Cl)cc1Cl [Example 3, 2-((R)-1′-(7-(((R)-1-(2,4-dichlorophenyl)ethyl)amino)-[1,2,4]triazolo[1,5-a]pyrimidin-5-yl)-[3,4′-bipiperidin]-1-yl)acetonitrile]"
2,< 0.1 µM,"CNC(=O)CCN1CCC[C@H](C2CCN(c3cc(N[C@H](C)c4ccc(Cl)cc4Cl)n4ncnc4n3)CC2)C1 [Example 17, 3-((R)-1′-(7-(((R)-1-(2,4-dichlorophenyl)ethyl)amino)-[1,2,4]triazolo[1,5-a]pyrimidin-5-yl)-[3,4′-bipiperidin]-1-yl)-N-methylpropanamide]"
3,< 0.1 µM,"CC(CN1CCC[C@H](C2CCN(c3cc(N[C@H](C)c4ccc(Cl)cc4Cl)n4ncnc4n3)CC2)C1)C(=O)O (mixture of isomers) [Example 15, 3-((R)-1′-(7-(((R)-1-(2,4-dichlorophenyl)ethyl)amino)-[1,2,4]triazolo[1,5-a]pyrimidin-5-yl)-[3,4′-bipiperidin]-1-yl)-2-methylpropanoic acid]"
4,< 0.1 µM,"CNS(=O)(=O)CCCN1CCC[C@H](C2CCN(c3cc(N[C@H](C)c4ccc(Cl)cc4Cl)n4ncnc4n3)CC2)C1 [Example 20, 3-((R)-1′-(7-(((R)-1-(2,4-dichlorophenyl)ethyl)amino)-[1,2,4]triazolo[1,5-a]pyrimidin-5-yl)-[3,4′-bipiperidin]-1-yl)-N-methylpropane-1-sulfonamide]"
5,0.1 to 0.5 µM,"Cc1cc(Cl)ccc1[C@@H](C)Nc1cc(N2CCC([C@H]3CCCN([C@H]4C[C@](C)(C(=O)O)C4)C3)CC2)nc2ncnn12 [Example 33, (1R,3r)-3-((R)-1′-(7-(((R)-1-(4-chloro-2-methylphenyl)ethyl)amino)-[1,2,4]triazolo[1,5-a]pyrimidin-5-yl)-[3,4′-bipiperidin]-1-yl)-1-methylcyclobutane-1-carboxylic acid]"
6,< 0.1 µM,"C[C@@H](Nc1cc(N2CCC([C@H]3CCCN(C)C3)CC2)nc2ncnn12)c1ccc(Cl)cc1Cl [Example 9, N-((R)-1-(2,4-dichlorophenyl)ethyl)-5-((R)-1-methyl-[3,4′-bipiperidin]-1′-yl)-[1,2,4]triazolo[1,5-a]pyrimidin-7-amine]"
7,< 0.1 µM,"Cc1cc(F)ccc1[C@@H](C)Nc1cc(N2CCC([C@H]3CCCN([C@H]4C[C@](C)(C(=O)O)C4)C3)CC2)nc2ccnn12 [Example 29, (1R,3r)-3-((R)-1′-(7-(((R)-1-(4-fluoro-2-methylphenyl)ethyl)amino)pyrazolo[1,5-a]pyrimidin-5-yl)-[3,4′-bipiperidin]-1-yl)-1-methylcyclobutane-1-carboxylic acid]"
8,> 0.5 µM,"C[C@@H](Nc1cc(N2CCC([C@H]3CCCN(CC(F)(F)F)C3)CC2)nc2ncnn12)c1ccc(Cl)cc1Cl [Example 7, N-((R)-1-(2,4-dichlorophenyl)ethyl)-5-((R)-1-(2,2,2-trifluoroethyl)-[3,4′-bipiperidin]-1′-yl)-[1,2,4]triazolo[1,5-a]pyrimidin-7-amine]"
9,0.1 to 0.5 µM,"C[C@@H](Nc1cc(N2CCC([C@H]3CCCN([C@H]4C[C@](C)(C(=O)O)C4)C3)CC2)nc2ncnn12)c1ccc(Cl)cc1Cl [Example 18, (1R,3r)-3-((R)-1′-(7-(((R)-1-(2,4-dichlorophenyl)ethyl)amino)-[1,2,4]triazolo[1,5-a]pyrimidin-5-yl)-[3,4′-bipiperidin]-1-yl)-1-methylcyclobutane-1-carboxylic acid]"
10,< 0.1 µM,"C[C@@H](Nc1cc(N2CCC([C@H]3CCCN([C@H]4C[C@](C)(C(=O)O)C4)C3)CC2)nc2nccn12)c1ccc(Cl)cc1Cl [Example 36, (1R,3r)-3-((R)-1′-(5-(((R)-1-(2,4-dichlorophenyl)ethyl)amino)imidazo[1,2-a]pyrimidin-7-yl)-[3,4′-bipiperidin]-1-yl)-1-methylcyclobutane-1-carboxylic acid]"
11,< 0.1 µM,"CC(=O)NCCN1CCC[C@H](C2CCN(c3cc(N[C@H](C)c4ccc(Cl)cc4Cl)n4ncnc4n3)CC2)C1 [Example 13, N-(2-((R)-1′-(7-(((R)-1-(2,4-dichlorophenyl)ethyl)amino)-[1,2,4]triazolo[1,5-a]pyrimidin-5-yl)-[3,4′-bipiperidin]-1-yl)ethyl)acetamide]"
12,< 0.1 µM,"C[C@@H](Nc1cc(N2CCC([C@H]3CCCN(Cc4ncc[nH]4)C3)CC2)nc2ncnn12)c1ccc(Cl)cc1Cl [Example 4, 5-((R)-1-((1H-imidazol-2-yl)methyl)-[3,4′-bipiperidin]-1′-yl)-N-((R)-1-(2,4-dichlorophenyl)ethyl)-[1,2,4]triazolo[1,5-a]pyrimidin-7-amine]"
13,< 0.1 µM,"C[C@@H](Nc1cc(N2CCC([C@H]3CCCN(CCS(N)(=O)=O)C3)CC2)nc2ncnn12)c1ccc(Cl)cc1Cl [Example 19, 2-((R)-1′-(7-(((R)-1-(2,4-dichlorophenyl)ethyl)amino)-[1,2,4]triazolo[1,5-a]pyrimidin-5-yl)-[3,4′-bipiperidin]-1-yl)ethane-1-sulfonamide]"
14,< 0.1 µM,"C[C@@H](Nc1cc(N2CCC([C@H]3CCCN([C@H]4C[C@](C)(C(=O)O)C4)C3)CC2)nc2ccnn12)c1ccc(F)cc1Cl [Example 25, (1R,3r)-3-((R)-1′-(7-(((R)-1-(2-chloro-4-fluorophenyl)ethyl)amino)pyrazolo[1,5-a]pyrimidin-5-yl)-[3,4′-bipiperidin]-1-yl)-1-methylcyclobutane-1-carboxylic acid]"
15,0.1 to 0.5 µM,"Cc1cc(F)ccc1[C@@H](C)Nc1cc(N2CCC([C@H]3CCCN([C@H]4C[C@](C)(C(=O)O)C4)C3)CC2)nc2ncnn12 [Example 28, (1R,3r)-3-((R)-1′-(7-(((R)-1-(4-fluoro-2-methylphenyl)ethyl)amino)-[1,2,4]triazolo[1,5-a]pyrimidin-5-yl)-[3,4′-bipiperidin]-1-yl)-1-methylcyclobutane-1-carboxylic acid]"
16,< 0.1 µM,"C[C@@H](Nc1cc(N2CCC([C@H]3CCCN([C@H]4C[C@](C)(C(=O)O)C4)C3)CC2)nc2ncnn12)c1ccc(Cl)cc1F [Example 37, (1R,3r)-3-((R)-1′-(7-(((R)-1-(4-chloro-2-fluorophenyl)ethyl)amino)-[1,2,4]triazolo[1,5-a]pyrimidin-5-yl)-[3,4′-bipiperidin]-1-yl)-1-methylcyclobutane-1-carboxylic acid]"
